Measured values: patent US12551460B2, “Methods and compositions comprising cationic lipids for stimulating type 1 interferon genes” (PDS BIOTECHNOLOGY COPORATION, priority 2017, dated 2026)
“Also recorded” adds a separate entry of the source.

What was measured:
type I interferon genes [1] = test: Inflammatory gene expression in sorted CD11c+ cells of draining lymph nodes (nCounter mouse inflammation kit, nanostring); type: in vivo, C57BL/6J mice
Procedure: The data in FIG. 1 corresponds to an experiment wherein C57BL/6J mice (n=4) were injected with 100 μl of 12 mM R-DOTAP liposome nanoparticles subcutaneously behind the neck. Mice injected with PBS, and LPS (50 μg/mouse) (24 h time point) were used as negative and positive controls respectively. 4 h or 24 hr after injection, axillary and brachial draining lymph nodes from each mouse were pooled and processed by collagenase digestion. CD11c positive cells (˜20,000 cells) in these lymph node cell suspensions were sort-purified and lysed in RLT buffer and processed for relative gene expression analysis using nCounter® mouse inflammation kit and nanostring technologies.
(§1) RNA isolation, Nano string Analysis, and gene expression assay: For gene expression analysis, draining popliteal lymph nodes (n=4) were enzymatically digested using cell dissociation cocktail for 60 min at 37° C., and single cell suspensions were used to sort CD11c+ ells using Sony SY3200 cell sorter. Sort purified CD11c+ cells (25K cells) were lysed in Qiagen's RLT cell lysis buffer (Qiagen, USA) and total RNA was isolated using Qiagen total RNA isolation kit (Qiagen, USA). Total RNA obtained was sent to University of Kentucky genomics core laboratory (Lexington, KY) where total RNA was mixed with Ncounter™ mouse inflammation panel (Nano String Technologies, Seattle, WA) which can measure over 547 genes involved in immune response. Binding of mRNA was detected with Nanso String nCounter analysis system, and raw count data was normalized and statistically analyzed using SAS program by UK genomics core laboratory. For confirmation studies using RT-PCR, the lymph nodes were directly lysed in RLT cell lysis buffer, and the total isolation RNA was reverse transcribed to cDNA using QuantiTect reverses transcription kit (Qiagen, USA). The cDNA was then amplified using TaqMan gene expression system (Applied biosystems, USA) to detect and quantify mouse IFNα and IFNβ transcripts relative to GAPDH expression using quantitative PCR reaction.
To assess cationic nanoparticle induced gene expression, C57BL/6J mice were injected with 100 μl of 12 mM R-DOTAP nanoparticles subcutaneously behind the neck, and inflammatory gene expression in draining lymph nodes analyzed 4 or 24 hours post vaccination. Mice injected with PBS, and LPS (50 μg/mouse) (24 h time point) were used as negative and positive controls respectively. 4 h or 24 hr after injection, axillary and brachial draining lymph nodes from each mouse were pooled and processed by collagenase digestion. Activated dendritic cells (CD11c^+) cells in the lymph node cell suspensions were sort-purified and lysed in RLT buffer and processed for relative gene expression analysis using nCounter® mouse inflammation kit and nanostring technologies.

type I interferon genes [2] = test: IFNα and IFNβ gene expression in popliteal draining lymph nodes (Taqman gene expression assay, RT-PCR); type: in vivo, C57BL/6J mice; settings: 50 μl of 6 mM nanoparticles s.c. foot pads; popliteal DLN; 3 h or 24 h
Procedure: The data in FIG. 2 corresponds to an experiment wherein C57BL/6J mice (n=2) were injected with 50 μl of 6 mM R-DOTAP or S-DOTAP nanoparticles subcutaneously in the foot pads. Mice injected with PBS, and LPS (50 μg/mouse) (24 h time point) were used as negative and positive controls respectively. 3 h or 24 hr after injection, popliteal draining lymph nodes from each mouse were pooled and lysed in RLT buffer and processed for relative gene expression analysis using Taqman gene expression assay and RT-PCR.
as §1, with “Total RNA obtained was sent to University of Kentucky genomics core laboratory (Lexington, KY) where total RNA was mixed with Ncounter™ mouse inflammation panel (Nano String Technologies, Seattle, WA) which can measure over 547 genes involved in immune response.” left out, “The cDNA was then amplified using TaqMan gene expression system (Applied biosystems, USA) to detect and quantify mouse IFNα and IFNβ transcripts relative to GAPDH expression using quantitative PCR reaction.” left out

draining lymph nodes = test: Cell recruitment: size and total cell number of draining lymph nodes; type: in vivo, C57BL/6J mice or IFNAR−/− mice
Procedure: (§2) The data in FIG. 3 corresponds to an experiment wherein A) C57BL/6J mice (n=3) were injected with 50 μl of 6 mM R-DOTAP or 280 mM Sucrose subcutaneously in the foot pads. At indicated times popliteal draining lymph nodes from each mouse were isolated and single suspensions of lymph nodes were enumerated using hemocytometer to obtain total cell numbers. B) C57BL/6J (n=3) or IFNAR−/− (n=3) mice were injected with 50 μl of 6 mM R-DOTAP or 280 mM sucrose in the foot pad and draining popliteal lymph nodes were harvested from each mouse and enzymatically digested lymph nodes were assessed for the total cell number at 24 hr (B) using hemocytometer and expression of CD69 on CD3+ T cells (B) was assessed using flowcytometry. A-B) data represent total number of cells in each draining lymph node. C) Data represent percent CD69+ cells each group 24 hr after vaccination (n=3 mice per group).
To further understand the effect and ability of cationic lipids to activate the type I interferons, C57BL/6J mice or IFNAR−/− mice were injected with 50 μl of 6 mM R-DOTAP nanoparticles or 6 mM S-DOTAP or 280 mM sucrose subcutaneously in the foot pads. 24 hr after injection, popliteal draining lymph nodes from each mouse were isolated and single cell suspensions of lymph nodes were stained with fluorochrome conjugated CD3 and CD69. […] Type I IFN is known to inhibit lymphocyte egress from lymphoid organs through the up-regulation of CD69 which, in turn, inhibits the sphingosine 1 phosphate receptor required for lymphocyte egress. We therefore postulated that injection of both S-DOTAP and R-DOTAP would result in the upregulation of CD69 in the DLN. […] The data represents % CD69+CD3+ T cells in each draining lymph node.

CD69 = CD69 expression on CD3+ T cells in draining lymph nodes (flow cytometry); type: in vivo, C57BL/6J mice or IFNAR−/− mice; settings: 24 hr
Procedure: as §2
IFN reporter cell assay and Cell phenotypic analysis: For detecting IFN, the supernatants from type I IFN producing cells were added to B16-Blue™ IFN-α/β Cells in a 96 well plate. After 24 hr incubation, the supernatants were assayed for SEAP activity using QUANTI-Blue™ reagent (InvivoGen, USA) according to manufacturer's instructions. Briefly, 50 μl of cell supernatants containing SEAP was mixed with 150 μl QUANTI-Blue™ reagent and incubated for 3-4 hr at 37° C. and absorbance was measured at 650 nm using a spectrometer. The concentrations of type I IFN in test samples were quantified using a standard curve generated from recombinant type I IFNβ treated B16-Blue™ IFN-α/β Cells in the same assay. To measure CD69 expression, single cell suspensions of lymph nodes were stained with fluorochrome conjugated CD3, and CD69 and percent CD69+CD3+ T cells in each draining lymph node were measured using flowcytometry.
To further understand the effect and ability of cationic lipids to activate the type I interferons, C57BL/6J mice or IFNAR−/− mice were injected with 50 μl of 6 mM R-DOTAP nanoparticles or 6 mM S-DOTAP or 280 mM sucrose subcutaneously in the foot pads. […]

[3] = wild type mice, 50 μl of 6 mM s.c. foot pads

SMILES | Expression of IFN-1α and IFN-1β, increase relative to LPS positive control (type I interferon genes [1]; 100 μl of 12 mM nanoparticles s.c. behind the neck, CD11c+ cells of axillary and brachial DLN, 4 or 24 h, LPS 50 μg/mouse) | Expression of several inflammatory genes (type I interferon genes [1]; 100 μl of 12 mM s.c., both time points (4 h, 24 h)) | Expression of other genes including Cxc110 (type I interferon genes [1]; 100 μl of 12 mM s.c., compared with LPS) | Type I interferon gene expression (nanostring) (type I interferon genes [1]; FIG. 1, mean of 4 mice) | Type I interferon (IFNα, IFNβ) gene expression, RT-PCR (type I interferon genes [2]) | DLN size (draining lymph nodes; 50 μl of 6 mM s.c. foot pads, without antigen, wild type mice) | Increase in total cell number in DLN in IFNαR knock-out mouse versus wild type (draining lymph nodes; IFNαR knock-out mouse, 24 hr) | Total cell number in DLN (draining lymph nodes; wild type mice, over a 7-day period) | CD69 expression in DLN T cells (CD69; IFNαR knock-out mice) | CD69 expression in DLN T cells (CD69; [3])
CCCCCCCC/C=C\CCCCCCCC(=O)OC[C@@H](C[N+](C)(C)C)OC(=O)CCCCCCC/C=C\CCCCCCCC [R-DOTAP, (R)-1,2-dioleoyl-3-trimethylammonium propane] | greater than 5 fold | significantly alter | significantly increased and more comparable to levels induced by LPS | up-regulation | strong inducers; also recorded: up-regulation | visible increase | greatly reduced | steady increase | no CD69 upregulation | up-regulation of CD69 most strongly in T cells
CCCCCCCC/C=C\CCCCCCCC(=O)OCC(C[N+](C)(C)C)OC(=O)CCCCCCC/C=C\CCCCCCCC (stereo not drawn) [S-DOTAP, 1,2-dioleoyl-3-trimethyl ammonium-propane] | – | – | – | – | strong inducers; also recorded: up-regulation | – | – | – | – | up-regulation of CD69 most strongly in T cells
